According to patent US20190152946A1, “Novel Compounds” (GlaxoSmithKline Intellectual Property Development Limited, priority 2016, published 2019):

How the values were obtained:
RPS6KA1 = molecular target: T1, RPS6KA1 (Homo sapiens, UniProt Q15418); experiment: Expression proteomics in THP-1 cells, RPS6KA1 level; format: cell-based; conditions: RPS6KA1 protein log2 fold change, 24 h, 1.0 μM
T1 construct: endogenous in cells; host or cells: THP-1
Experimental: (§1) THP-1 cells were seeded at a concentration of 3×10^6 cells in T175 flasks with 60 mL growth medium (RPM11640+10% FBS). […] of a 10× compound solution prepared in growth medium (DMSO), IAP PROTAC) was added and the cells were treated for the indicated time points (6 or 24 h) at 37° C., 5% CO2. For harvesting the cells were collected into falcon tubes on ice, centrifuged and washed twice in cold PBS (Life technologies). After the last washing step the supernatant was removed and the pellets were snap-frozen in liquid N2 and stored at −80° C. and lysed in 2% SDS for 3 min at 95° C. in a thermomixer (Thermo Fisher Scientific), followed by digestion of DNA with Benzonase at 37° C. for 1.5 h. Lysate was cleared by centrifugation an protein concentration in supernatant was determined by BCA assay.
(§2) Leukemia 25, 89-100 (2011).
(§3) Samples were dried in vacuo and resuspended in 0.05% trifluoroacetic acid in water. […]
(§4) Reporter ion intensities were read from raw data and multiplied with ion accumulation times (the unit is milliseconds) so as to yield a measure proportional to the number of ions;
(§5) Nat Biotech 29, 255-265 (2011). this measure is referred to as ion area Savitski, M. M. et al. Delayed Fragmentation and Optimized Isolation Width Settings for Improvement of Protein Identification and Accuracy of Isobaric Mass Tag Quantification on Orbitrap-Type Mass Spectrometers. […]

GAK = molecular target: T2, GAK (Homo sapiens, UniProt O14976); experiment: Expression proteomics in THP-1 cells, GAK level; format: cell-based; conditions: GAK protein log2 fold change, 24 h, 1.0 μM
T2 construct: endogenous in cells; host or cells: THP-1
T2 sequence (O14976 1-1311): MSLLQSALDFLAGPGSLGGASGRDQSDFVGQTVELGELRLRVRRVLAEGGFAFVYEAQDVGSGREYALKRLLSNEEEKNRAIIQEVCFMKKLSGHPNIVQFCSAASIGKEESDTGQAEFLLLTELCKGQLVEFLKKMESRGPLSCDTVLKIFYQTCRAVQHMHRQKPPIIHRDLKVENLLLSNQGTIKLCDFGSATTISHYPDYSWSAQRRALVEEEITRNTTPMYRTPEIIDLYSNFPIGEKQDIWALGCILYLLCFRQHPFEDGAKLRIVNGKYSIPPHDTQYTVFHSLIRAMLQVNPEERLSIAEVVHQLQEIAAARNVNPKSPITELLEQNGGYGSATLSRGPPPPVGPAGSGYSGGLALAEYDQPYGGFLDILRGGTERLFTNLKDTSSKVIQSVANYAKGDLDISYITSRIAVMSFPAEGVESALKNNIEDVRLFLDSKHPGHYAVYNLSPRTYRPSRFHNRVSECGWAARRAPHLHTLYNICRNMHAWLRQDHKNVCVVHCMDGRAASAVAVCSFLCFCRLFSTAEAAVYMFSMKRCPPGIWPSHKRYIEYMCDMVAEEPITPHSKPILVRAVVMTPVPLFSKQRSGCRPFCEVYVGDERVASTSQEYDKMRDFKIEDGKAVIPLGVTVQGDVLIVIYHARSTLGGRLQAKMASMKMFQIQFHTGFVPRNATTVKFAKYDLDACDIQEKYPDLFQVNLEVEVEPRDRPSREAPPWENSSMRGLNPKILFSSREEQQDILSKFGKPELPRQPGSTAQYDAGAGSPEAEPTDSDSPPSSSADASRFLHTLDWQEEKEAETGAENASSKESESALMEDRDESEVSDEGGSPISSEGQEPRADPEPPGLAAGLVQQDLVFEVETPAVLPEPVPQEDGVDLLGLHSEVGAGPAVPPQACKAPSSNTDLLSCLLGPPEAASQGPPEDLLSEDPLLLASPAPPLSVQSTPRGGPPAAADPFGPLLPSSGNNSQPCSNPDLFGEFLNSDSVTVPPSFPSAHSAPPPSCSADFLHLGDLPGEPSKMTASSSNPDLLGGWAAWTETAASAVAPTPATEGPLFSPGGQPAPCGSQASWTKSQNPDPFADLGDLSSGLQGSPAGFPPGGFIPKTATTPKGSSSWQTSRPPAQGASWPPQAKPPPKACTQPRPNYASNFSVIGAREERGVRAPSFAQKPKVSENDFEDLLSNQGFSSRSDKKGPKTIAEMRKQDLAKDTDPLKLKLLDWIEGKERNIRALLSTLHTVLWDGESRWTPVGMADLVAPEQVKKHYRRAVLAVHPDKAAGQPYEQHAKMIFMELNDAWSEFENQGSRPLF
Experimental: as §1, §2, §3, §4, §5

T1 sequence (Q15418 whole entry): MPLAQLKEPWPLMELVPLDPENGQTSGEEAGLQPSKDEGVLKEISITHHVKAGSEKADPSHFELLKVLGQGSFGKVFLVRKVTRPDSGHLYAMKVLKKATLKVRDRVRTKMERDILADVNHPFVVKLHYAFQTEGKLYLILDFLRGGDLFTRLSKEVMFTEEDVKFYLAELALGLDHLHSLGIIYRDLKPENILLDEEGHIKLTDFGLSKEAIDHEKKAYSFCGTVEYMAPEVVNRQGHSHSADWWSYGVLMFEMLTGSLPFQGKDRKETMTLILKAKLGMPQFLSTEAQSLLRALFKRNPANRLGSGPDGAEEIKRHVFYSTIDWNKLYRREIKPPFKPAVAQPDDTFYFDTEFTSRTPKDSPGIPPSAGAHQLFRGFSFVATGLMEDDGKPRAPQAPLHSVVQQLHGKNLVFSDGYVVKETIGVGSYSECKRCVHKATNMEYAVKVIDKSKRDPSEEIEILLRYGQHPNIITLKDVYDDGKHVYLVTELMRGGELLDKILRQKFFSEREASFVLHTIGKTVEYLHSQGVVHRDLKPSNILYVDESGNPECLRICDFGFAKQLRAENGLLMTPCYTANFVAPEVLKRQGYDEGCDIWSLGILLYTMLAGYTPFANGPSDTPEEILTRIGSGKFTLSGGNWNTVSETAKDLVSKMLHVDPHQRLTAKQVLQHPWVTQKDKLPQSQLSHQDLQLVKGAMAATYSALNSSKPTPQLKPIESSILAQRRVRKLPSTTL

CNC(=O)c1ccccc1Nc1nc(Nc2ccc(N3CCN(CCOCCOCCOCCOc4ccc5c(c4)CN(C(=O)[C@@H](NC(=O)[C@H](C)NC)C(C)(C)C)[C@H](C(=O)N[C@@H]4CCCc6ccccc64)C5)CC3)cc2)ncc1Cl [IAP, (S)-7-(2-(2-(2-(2-(4-(4-((5-Chloro-4-((2-(methylcarbamoyl)phenyl)amino)pyrimidin-2-yl)amino)phenyl)piperazin-1-yl)ethoxy)ethoxy)ethoxy)ethoxy)-2-((S)-3,3-dimethyl-2-((S)-2-(methylamino)propanamido)butanoyl)-N-((R)-1,2,3,4-tetrahydronaphthalen-1-yl)-1,2,3,4-tetrahydroisoquinoline-3-carboxamide]
log2fc_IAP_24 h_1.0 μM_n1 (RPS6KA1; replicate n1): −1.21 | log2fc_IAP_24 h_1.0 μM_n2 (RPS6KA1; replicate n2): −1.24 | log2fc_IAP_24 h_1.0 μM_n1 (GAK; replicate n1): −2.02 | log2fc_IAP_24 h_1.0 μM_n2 (GAK; replicate n2): −2.39
